Broadly, the MIC is the smallest concentration in the dilution series that meets the test's criterion for growth inhibition.

The source of these data is US20230121689A1, “CEPHALOSPORIN ANTIBACTERIAL COMPOUND AND PHARMACEUTICAL APPLICATION THEREOF” (priority 2020, published 2023).

Common to all, as to type: cell-based
Assay [1] deals with Carbapenem-resistant Acinetobacter baumannii (CRAB). Kind of assay: Test Example 1: antibacterial activity test (MIC). As for the experimental part:
(§1) The test compounds were diluted in a gradient and used for an MIC assay on the test strains. The test compounds at an initial assay concentration of 32 μg/mL were diluted in a 2-fold gradient (11 concentration points in total), and two duplicate wells were set for each concentration. Additional wells without drug dosing were set as growth controls. The minimum inhibitory concentration (MIC) assay was performed with reference to the Clinical and Laboratory Standards Institute (CLSI) guidelines.
(§2) After the frozen strains were subcultured, a single colony was picked and re-suspended in normal saline or sterile water in a tube. The bacterial suspension was vortexed and adjusted to 0.5 McF using a spectrophotometer at the wavelength of 530 nm. The bacterial solution was taken by a pipette, added to a culture medium, diluted and mixed well, and seeded to a bacterial assay plate.
(§3) The 96-well plate was affixed with a disposable sealing film, shaken and mixed well, and visually observed using a plate reader. The minimum concentration of the compounds capable of inhibiting the growth of bacteria was defined as MIC as compared to the growth controls.

Assay [2] deals with Carbapenem-resistant Enterobacteriaceae (CRE). Kind of assay: Test Example 1: antibacterial activity test (MIC). As for the experimental part: as §1, §2, §3
Assay [3] concerns Carbapenem-resistant Pseudomonas aeruginosa (CRPA). The assay is described as follows: Test Example 1: antibacterial activity test (MIC). As for the experimental part:
as §1, §2, §3

In assay [4] the test system is Carbapenem-resistant Enterobacteriaceae (CRE, Klebsiella pneumoniae). The assay is described as follows: Test Example 2: antibacterial activity test (MIC). To be noted: ID-CAMHB, read-out: ID-CAMHB, MIC. Here is the method: (§4) 1. The test compounds were dissolved in sterile normal saline, vortexed for uniformly mixing, and diluted in a 2-fold dilution with the sterile normal saline (11 concentration points in total). The test concentration range was 32-0.031 μg/mL, and two duplicate wells were set for each concentration. Additional wells without drug dosing were set as growth controls. 2. 4 μL of the diluent was added to 196 μL of the bacterial suspension in a 96-well plate (the bacterial count in the bacterial suspension was 2-8×10^5 colony forming units/mL). 3.
(§5) The minimum inhibitory concentration (MIC) assay was performed with reference to the Clinical and Laboratory Standards Institute (CLSI) guidelines.

For assay [5], the system named is Carbapenem-resistant Pseudomonas aeruginosa (CRPA, Pseudomonas aeruginosa). Kind of assay: Test Example 2: antibacterial activity test (MIC). To be noted: ID-CAMHB, read-out: ID-CAMHB, MIC. As for the experimental part:
as §4, §5

Assay [6] deals with Control Strain Pseudomonas aeruginosa ATCC 27853. Kind of assay: Test Example 2: antibacterial activity test (MIC). To be noted: ATCC27853, ID-CAMHB, ATCC 27853, read-out: ID-CAMHB, MIC. As for the experimental part:
as §4, §5

Assay [7] concerns Carbapenem-resistant Acinetobacter baumannii (CRAB, Acinetobacter baumannii). The assay is described as follows: Test Example 2: antibacterial activity test (MIC). To be noted: ID-CAMHB, read-out: ID-CAMHB, MIC. Here is the method: as §4, §5
In assay [8] the test system is Control strain Escherichia coli ATCC 25922. The assay is described as follows: Test Example 2: antibacterial activity test (MIC). To be noted: ATCC25922, ID-CAMHB, ATCC 25922, read-out: ID-CAMHB, MIC. Here is the method: as §4, §5

≈ marks a conversion by molar mass, not a printed value. Like-named read-outs stand apart in the source and are kept apart here.

For `CC(C)(O/N=C(\C(=O)N[C@@H]1C(=O)N2C(C(=O)[O-])=C(C[N+]3(CCCC[C@H](N)C(=O)O)CCCC3)CSC12)c1csc(N)n1)C(=O)O` (stereo partly shown) [Compound 1], the MIC in assay [1] (CRAB strain No. 100085), in assay [1] (CRAB strain No. 100333), in assay [1] (CRAB strain No. 110440), in assay [1] (CRAB strain No. 110477), in assay [1] (CRAB strain No. 110517) and in assay [2] (CRE strain No. 100109) was > 32 mg/L in each case. The MIC was > 32 mg/L in assay [2] (CRE strain No. 100186); > 32 mg/L in assay [2] (CRE strain No. 110502); > 32 mg/L in assay [2] (CRE strain No. 110525); > 32 mg/L in assay [2] (CRE strain No. 311277); 16 mg/L (≈ 24 µM) in assay [3] (CRPA strain No. 100110); > 32 mg/L in assay [3] (CRPA strain No. 110163). Besides, the MIC was 32 mg/L (≈ 47.9 µM) in assay [3] (CRPA strain No. 110224), > 32 mg/L in assay [3] (CRPA strain No. 110358) and > 32 mg/L in assay [3] (CRPA strain No. 110390).

For the compound `CON(CC[N+]1(CC2=C(C(=O)O)N3C(=O)[C@@H](NC(=O)/C(=N\OC(C)(C)C(=O)O)c4csc(N)n4)[C@H]3SC2)CCCC1)C(=O)c1ccc(O)c(O)c1Cl` [Compound 3], the MIC in assay [1] (CRAB strain No. 100085) was determined as 3 mg/L; in assay [1] (CRAB strain No. 100333) it was 6 mg/L; in assay [1] (CRAB strain No. 110440), 4 mg/L; in assay [1] (CRAB strain No. 110477), 4 mg/L; in assay [1] (CRAB strain No. 110517), 1 mg/L; in assay [2] (CRE strain No. 100109), 3 mg/L. Also, the MIC is 6 mg/L in assay [2] (CRE strain No. 100186); > 32 mg/L in assay [2] (CRE strain No. 110502); 16 mg/L in assay [2] (CRE strain No. 110525); 8 mg/L in assay [2] (CRE strain No. 311277); 0.562 mg/L in assay [3] (CRPA strain No. 100110); 1 mg/L in assay [3] (CRPA strain No. 110163). Moreover, the values for the MIC in assay [3] (CRPA strain No. 110224), in assay [3] (CRPA strain No. 110358) and in assay [3] (CRPA strain No. 110390) were 1 mg/L, 2 mg/L and 2 mg/L, respectively.

For `CC(C)(O/N=C(\C(=O)N[C@@H]1C(=O)N2C(C(=O)O)=C(C[N+]3(CCNC(=S)Nc4ccc(O)c(O)c4Cl)CCCC3)CS[C@H]12)c1csc(N)n1)C(=O)O` [Compound 4], the MIC in assay [1] (CRAB strain No. 100085), in assay [1] (CRAB strain No. 100333), in assay [1] (CRAB strain No. 110440), in assay [1] (CRAB strain No. 110477), in assay [1] (CRAB strain No. 110517) and in assay [2] (CRE strain No. 100109) was > 32 mg/L each time. The MIC is > 32 mg/L in assay [2] (CRE strain No. 100186); > 32 mg/L in assay [2] (CRE strain No. 110502); > 32 mg/L in assay [2] (CRE strain No. 110525); > 32 mg/L in assay [2] (CRE strain No. 311277); 16 mg/L in assay [3] (CRPA strain No. 100110); > 32 mg/L in assay [3] (CRPA strain No. 110163). The MIC in assay [3] (CRPA strain No. 110224), in assay [3] (CRPA strain No. 110358) and in assay [3] (CRPA strain No. 110390) was > 32 mg/L throughout.

For `CC(=O)N(O)CC[N+]1(CC2=C(C(=O)O)N3C(=O)[C@@H](NC(=O)/C(=N\OC(C)(C)C(=O)O)c4csc(N)n4)[C@H]3SC2)CCCC1` [Compound 5], the MIC in assay [4] (FDA-CDC AR-BANK #0361 (TEM-1; SHV-12; KPC-2)) was > 32 mg/L; in assay [4] (FDA-CDC AR-BANK #0362 (TEM-1; SHV-11; KPC-2)), > 32 mg/L; in assay [4] (FDA-CDC AR-BANK #0363 (TEM-1; SHV-12; KPC-2)), > 32 mg/L; in assay [4] (FDA-CDC AR-BANK #0438 (aph(3′)-Ia, dfrA12, KPC-3, OmpK35, oqxA, oqxB, SHV-11)) it was > 32 mg/L; in assay [4] (FDA-CDC AR-BANK #0453 (KPC-3, OmpK35, oqxA, oqxB, SHV-11, TEM-1B)), > 32 mg/L; in assay [5] (FDA-CDC AR-BANK #0439 (aac(6′)-Il, aadA1b, BCR1, IMP-18, OXA-50)) it was > 32 mg/L. Also, the minimal inhibitory concentration (MIC) was > 32 mg/L in assay [5] (FDA-CDC AR-BANK #0441 (KPC-2)); > 32 mg/L in assay [5] (FDA-CDC AR-BANK #0444 (aac(6′)-Il, dfrB5, OXA-4, tet(G), VIM-2)); > 32 mg/L in assay [5] (FDA-CDC AR-BANK #0457 (aadA6, VIM-2)); > 32 mg/L in assay [6]; > 32 mg/L in assay [7] (FDA-CDC AR-BANK #0036 (strB, OXA-65, OXA-24, strA, sul2)); > 32 mg/L in assay [7] (FDA-CDC AR-BANK #0052 (OXA-58, OXA-100, sul2)). The MIC is > 32 mg/L in assay [7] (FDA-CDC AR-BANK #0063 (OXA-23, OXA-65, OXA-24, sul2)); > 32 mg/L in assay [7] (FDA-CDC AR-BANK #0070 (OXA-58, OXA-100, sul2)); > 32 mg/L in assay [7] (FDA-CDC AR-BANK #0101 (strB, OXA-65, OXA-24, strA, sul2)); > 32 mg/L in assay [8].
